According to article PMC10600239, “Selective MCL-1 inhibitor ABBV-467 is efficacious in tumor models but is associated with cardiac troponin increases in patients” (Communications Medicine, 2023):
Several values for one entry are separate records, joined by “and”; a condition that tells them apart may be missing. Equal values may be shown once.

System: AMO-1 xenografts
Assay: AMO-1 xenograft efficacy (tumor volume, body weight); on Mortality Observation Day 34: key: EUTV: Euthanized: tumor volume
Format: in vivo, mouse
Design: key to Anti-tumor Activity vs. AMO-1 (DSMZ), Median / Anti-tumor Activity vs. AMO-1 (DSMZ), individual animal / Anti-tumor Activity vs. AMO-1 (DSMZ), Mean: tumor volume in mm^3 (length × width^2/2)
Method: All animal studies were conducted in accordance with the guidelines approved by the Institutional Animal Care and Use Committees of AbbVie. The research protocol was approved by In Vivo Pharmacology at AbbVie prior to study initiation but was not publicly registered or disclosed. Female C.B-17 SCID-beige mice (AMO-1, OPM-2, NCI-H929, and OCI-AML2 xenografts) and female NSG mice (MV4-11-Red.Fluc systemic) were purchased from Charles River Laboratories (Wilmington, MA). Animals were housed in a light cycle-controlled room with HEPA filtration at 22 °C. Animals had nesting and climbing cage topper as the primary environmental enrichment. Animals were inoculated subcutaneously in the right flank with 5 × 10^6 (AMO-1, OPM-2, NCI-H929, and OCI-AML2) or intravenous (IV) with 5 × 10^6 (MV4-11-Red.Fluc). The inoculation volume (0.2 mL) comprised a 50:50 mixture of cells in growth media and Matrigel (BD Biosciences) for subcutaneous injections and 100% phosphate-buffered saline for IV administration. All cell lines used in this publication were authenticated using IDEXX for STR profiling as well as their IMPACT and human IMPACT panels for pathogen screening. Electronic calipers were used to measure the length and width of each tumor 2 to 3 times per week. Tumor volume was estimated by applying the following equation: volume = length × width^2/2. All groups remained blinded during measurements and dosing; only veterinary staff were aware of group identity. When tumors reached approximately 200 mm^3, mice were randomized by match and distributed into treatment and control groups. All xenograft trials were conducted using 5 to 10 mice per group, and all mice were ear tagged and monitored individually throughout the studies. […] Tumor burden in the systemic MV4-11-Red.Fluc experiment was measured using an IVIS® spectrum from PerkinElmer by taking the total photon flux of the entire dorsal side of an individual mouse. […] A background control mouse that was tumor naive but received D-Luciferin was placed in the upper left corner of each image. The total flux from this animal was subtracted from the total flux of each animal present in the image.
For in vivo studies, maximal tumor growth inhibition (TGI) was calculated as the greatest treatment response using the following equation: Maximal TGI = (1 − mean tumor volume of the treated group/mean tumor volume of the vehicle control group) × 100. The tumor growth delay (TGD) percentage was determined as the percentage increase of the median time period for the treatment group to reach an arbitrary tumor volume of 1000 mm^3 relative to the vehicle control group. […] A power analysis was conducted using historical data to determine the number of animals required to yield significance of 0.05 at a 30% difference. […] Data from experiments in vivo were analyzed using the student’s t-test for TGI values and the Mann–Whitney U test for TGD using Excel and GraphPad Prism. Fisher’s exact test was used to probe significance of differences in response frequency.

[1] = 3.13 mg/kg QDx1 IV, Day 28, n=8
[2] = 3.13 mg/kg QDx1 IV, SCID-beige mice, Day 21
[3] = 3.13 mg/kg QDx1 IV, SCID-beige mice, Day 23
[4] = 3.13 mg/kg QDx1 IV, SCID-beige mice, Day 23, mean(T)/mean(C)
[5] = 3.13 mg/kg QDx1 IV, SCID-beige mice, Day 23, median(T)/median(C)

Structure (SMILES): Cc1c(Cl)c2c(Cl)c(C)c1-c1c(-c3ccc(F)cc3)sc3ncnc(c13)O[C@@H](C(=O)O)Cc1cc(ccc1OCc1ccnc(-c3ccc(OC[C@H]4COCCO4)cc3)n1)OC[C@@H](CN1CCN(C)CC1)O2 [Compound A-1747745.0]
- % T/C (mean) tumor volume Day 26 (3.13 mg/kg QDx1 IV, Day 26, mean(T)/mean(C)): 46.99%
- % T/C (median) tumor volume Day 26 (3.13 mg/kg QDx1 IV, Day 26, median(T)/median(C)): 47.41%
- Xenograft AMO-1 (DSMZ) tumor volume Day 28, Mean [1]: 1102.63 mm³
- Xenograft AMO-1 (DSMZ) tumor volume Day 28, Median [1]: 1024.93 mm³
- % T/C (mean) tumor volume Day 28 (3.13 mg/kg QDx1 IV, Day 28, mean(T)/mean(C)): 53.81%
- % T/C (median) tumor volume Day 28 (3.13 mg/kg QDx1 IV, Day 28, median(T)/median(C)): 53.13%
- Xenograft AMO-1 (DSMZ) tumor volume Day 26, individual animals (3.13 mg/kg QDx1 IV, SCID-beige female mice, Day 26): 859 mm³ and 654 mm³ and 702 mm³ and 664 mm³ and 464 mm³ and 884 mm³ and 882 mm³ and 812 mm³
- Xenograft AMO-1 (DSMZ) tumor volume Day 28, individual animals (3.13 mg/kg QDx1 IV, SCID-beige female mice, Day 28): 1383 mm³ and 753 mm³ and 968 mm³ and 881 mm³ and 872 mm³ and 1157 mm³ and 1725 mm³ and 1082 mm³
- Xenograft AMO-1 (DSMZ) Day 21, Mean [2]: 316.72 mm³
- Xenograft AMO-1 (DSMZ) Day 21, Median [2]: 336.29 mm³
- Xenograft AMO-1 (DSMZ) (mm³) Day 21, individual animals (3.13 mg/kg QDx1 IV, SCID-beige mice, Day 21, individual tumor volumes): 248 mm³ and 370 mm³ and 418 mm³ and 238 mm³ and 111 mm³ and 349 mm³ and 477 mm³ and 324 mm³
- % T/C (mean), Tumor Volume Day 21 (3.13 mg/kg QDx1 IV, SCID-beige mice, Day 21, mean(T)/mean(C)): 49.55%
- % T/C (median), Tumor Volume Day 21 (3.13 mg/kg QDx1 IV, SCID-beige mice, Day 21, median(T)/median(C)): 63.86%
- Xenograft AMO-1 (DSMZ) Day 23 Mean [3]: 463.98 mm³
- Xenograft AMO-1 (DSMZ) Day 23 Median [3]: 467.27 mm³
- Xenograft AMO-1 (DSMZ) (mm³) Day 23, individual animals (3.13 mg/kg QDx1 IV, SCID-beige mice, Day 23, individual tumor volumes): 595 mm³ and 419 mm³ and 553 mm³ and 359 mm³ and 205 mm³ and 462 mm³ and 647 mm³ and 473 mm³
- % T/C (mean), body weight Day 23 [4]: 104.12%
- % T/C (mean), tumor volume Day 23 [4]: 43.45%
- % T/C (median), body weight Day 23 [5]: 104.12%
- % T/C (median), tumor volume Day 23 [5]: 48.01%
- Xenograft AMO-1 (DSMZ) (mm³) Day 30 (individual animals) (3.13 mg/kg QDx1 IV, Day 30, SCID-beige female mice, tumor volume per animal): 1812 mm³ and 984 mm³ and 1324 mm³ and 1150 mm³ and 1149 mm³ and 1537 mm³ and 1916 mm³ and 1649 mm³
- Xenograft AMO-1 (DSMZ) (mm³) Day 30 Mean (3.13 mg/kg QDx1 IV, Day 30, group mean): 1440.23 mm³
- Xenograft AMO-1 (DSMZ) (mm³) Day 30 Median (3.13 mg/kg QDx1 IV, Day 30, group median): 1430.49 mm³
- Xenograft AMO-1 (DSMZ) (mm³) Day 34 (individual animals) (3.13 mg/kg QDx1 IV, Day 34, SCID-beige female mice, tumor volume per animal): 2874 mm³ and 1660 mm³ and 1699 mm³ and 1719 mm³ and 1802 mm³ and 2605 mm³ and 2742 mm³ and 2768 mm³
- Xenograft AMO-1 (DSMZ) (mm³) Day 34 Mean (3.13 mg/kg QDx1 IV, Day 34, group mean): 2233.47 mm³
- Xenograft AMO-1 (DSMZ) (mm³) Day 34 Median (3.13 mg/kg QDx1 IV, Day 34, group median): 2203.67 mm³
- Mortality Observation Day 34 (3.13 mg/kg QDx1 IV, Day 34, per animal): EUTV
- Starting Body Wt. (6.25 mg/kg IV QDx1, AMO-1 xenograft, SCID-beige mice, in g (unit assumed)): 21.625
- % Mortality (6.25 mg/kg IV QDx1, clinical observation): 100.00%
- Anti-tumor Activity vs. AMO-1 (DSMZ), Mean (6.25 mg/kg IV QDx1, day 13): 216.25
- Anti-tumor Activity vs. AMO-1 (DSMZ), Median (6.25 mg/kg IV QDx1, day 13): 216.39
- Group Mean, Body Weight (6.25 mg/kg IV QDx1, day 14): 21.63 g
- Anti-tumor Activity vs. AMO-1 (DSMZ), Mean (6.25 mg/kg IV QDx1, day 16): 172.06
- Anti-tumor Activity vs. AMO-1 (DSMZ), Median (6.25 mg/kg IV QDx1, day 16): 173.79
- Anti-tumor Activity vs. AMO-1 (DSMZ), Mean (6.25 mg/kg IV QDx1, day 19): 133.62
- Anti-tumor Activity vs. AMO-1 (DSMZ), Median (6.25 mg/kg IV QDx1, day 19): 134.81
- Anti-tumor Activity vs. AMO-1 (DSMZ), Mean (6.25 mg/kg IV QDx1, day 21): 175.92
- Anti-tumor Activity vs. AMO-1 (DSMZ), Median (6.25 mg/kg IV QDx1, day 21): 202.13
- Anti-tumor Activity vs. AMO-1 (DSMZ), Mean (6.25 mg/kg IV QDx1, day 23): 218.85
